Measurements as given in US8623414B2, “Compositions comprising a lipid and copolymer of styrene and maleic acid” (Malvren Cosmeceutics Limited, priority 2005, dated 2014).
Each block holds one compound with its values, some of them ahead of it. Where a SMILES comes first, the peptide text is derived from it. The star is where a group is joined. Palmitoyl = CCCCCCCCCCCCCCCC(=O)*

How the values were obtained:
[1] = Example 5 Supplemental: turbidity meter (Nephla) of compositions with active agents over time (Table 12a); format: physicochemical; settings: SMA 3000P (hydrolysed) 2.5%, lipid 90H 1%; for clarity: key: Clear: categorised as being clear if there was no significant visible opacity to the naked eye; Cloudy: categorised as cloudy if there was significant visible disruption to the passage of light
Procedure: The turbidity meter was calibrated prior to use, with two known standards (0 and 40 FNU).
After the final stage of sample preparation (i.e. adjustment of the pH to physiological) samples were course filtered through Whatman 541 filter paper to remove any gross matter which could interfere with turbidity measurement. Immediately after filtration the first turbidity measurement was taken. Mixtures were stored at 4° C. following the initial measurement, and remeasured at later time points.

[2] = Example 5: compositions of the invention to solubilise exemplary active agents (visual clarity, pH on clearing, clarity at pH 7); settings: SMA 3000HNa 2.5%, 90H 1%, S LPC 0.01%
Procedure: A stock emulsion of cosurfactant, membrane forming lipid and active was prepared at double the desired final concentration. Cosurfactant was dissolved in water while heating (approximately 50° C.) and stirring. Lipid was then added, followed by continued stirring and heating until a uniform emulsion is formed. The emulsion was then homogenised for 10 minutes. After re-heating to approximately 50° C. the active component was added slowly under stirring until a uniform emulsion was present. The final emulsion was then homogenised for a further 10 minutes.
Stock solutions were prepared by mixing of the hydrolysed polymer with the appropriate volume of water.
Polymer/lipid mixtures were then prepared by the dropwise addition of the lipid containing emulsion to an equal volume of polymer solution while stirring and heating to approximately 50° C.
The pH of the mixtures was adjusted to determine the critical pH level at which macromolecular assemblies formed, and whether the resulting clear and colourless solution would remain at physiological pH.
Percentage values specified in this experiment refer to the weight of the component in question as a proportion of the total weight of the composition.
Mixtures were visually examined to determine whether the polymer/lipid assemblies had solubilised the active agent in the aqueous medium. The clarity of a mixture was categorised as being clear if there was no significant visible opacity to the naked eye, whereas a mixture was categorised as cloudy if there was significant visible disruption to the passage of light.

[3] = SL 30-3 0.05% (S LPC content 0.01%), active agent 0.80%
[4] = S LPC 0.01%, active agent 0.25%
[5] = S LPC 0.01%, active agent 0.15%

Compound: CC(=O)N1CCN(c2ccc(OCC3COC(Cn4ccnc4)(c4ccc(Cl)cc4Cl)O3)cc2)CC1 (stereo not drawn) [Keta., Ketaconazole, reference compound]
Clarity ([1]; S LPC 0.01%, active agent 0.1%): Clear
pH on clearing ([1]; S LPC 0.01%, active agent 0.1%): 8.63
Turbidity at pH 7 (FNU) ([1]; S LPC 0.01%, active agent 0.1%): 40.75 FNU
Clarity ([1]; S LPC 0.01%, active agent 0.4%): Clear
pH on clearing ([1]; S LPC 0.01%, active agent 0.4%): 8.83
Turbidity at pH 7 (FNU) ([1]; S LPC 0.01%, active agent 0.4%): 74.5 FNU

Compound: NC[C@@H]1O[C@H](O[C@H]2[C@@H](O)[C@H](O[C@@H]3[C@@H](O)[C@H](N)C[C@H](N)[C@H]3O[C@H]3O[C@H](CN)[C@@H](O)[C@H](O)[C@H]3N)O[C@@H]2CO)[C@H](N)[C@@H](O)[C@@H]1O.O=S(=O)(O)O [Neo. Sulphate, Neomycin Sulphate, reference compound]
Clarity ([1]; S LPC 0.01%, active agent 0.1%): Clear
pH on clearing ([1]; S LPC 0.01%, active agent 0.1%): 8.82
Turbidity at pH 7 (FNU) ([1]; S LPC 0.01%, active agent 0.1%): 42.80 FNU

Compound: C[C@@H]1[C@H](O)[C@@H](C)/C=C/C=C/CC/C=C/C=C/C=C/C=C/C(O[C@H]2O[C@H](C)[C@@H](O)[C@H](N)[C@@H]2O)CC2O[C@](O)(CC(O)C(O)CCC(O)CC(O)CC(O)CC(=O)O[C@H]1C)CC(O)C2C(=O)O (stereo partly drawn) [Nystatin, reference compound]
Clarity ([1]; S LPC 0.01%, active agent 0.1%): Clear
pH on clearing ([1]; S LPC 0.01%, active agent 0.1%): 8.85
Turbidity at pH 7 (FNU) ([1]; S LPC 0.01%, active agent 0.1%): 6.93 FNU

Compound: Cc1cc(CC(C)CC(C)(C)C)n(O)c(=O)c1.NCCO (stereo not drawn) [Octopirox, Piroctone olamine]
Clarity [1, 3]: Clear
Turbidity at pH 7 (FNU) [1, 3]: 3.52 FNU

Compound: Nc1ccc(C(=O)O)cc1 [PABA, 4-Aminobenzoic acid]
Clarity ([1]; S LPC 0.01%, active agent 0.1%): Clear
pH on clearing ([1]; S LPC 0.01%, active agent 0.1%): 8.89
Turbidity at pH 7 (FNU) ([1]; S LPC 0.01%, active agent 0.1%): 23.20 FNU

Compound: CCCCCCCCCCCCCCCC(=O)OC/C=C(C)/C=C/C=C(C)/C=C/C1=C(C)CCCC1(C)C [Ret-P, Retinol palmitate]
Clarity ([2]; active agent 0.25%): Clear
Clarity at pH 7 ([2]; active agent 0.25%): Clear
pH on clearing ([2]; active agent 0.25%): 8.95

Compound: CCCCCCCCC(CCCCCC)C(=O)OC[C@H](OC(=O)C(CCCCCC)CCCCCCCC)[C@H]1OC(=O)C(OC(=O)C(CCCCCC)CCCCCCCC)=C1OC(=O)C(CCCCCC)CCCCCCCC (stereo partly drawn) [VC-IP]
Clarity ([2]; active agent 0.1%): Clear
Clarity at pH 7 ([2]; active agent 0.1%): Clear
pH on clearing ([2]; active agent 0.1%): 8.89

Compound: C=C1CC[C@H](O)C/C1=C/C=C1\CCC[C@]2(C)[C@@H]([C@H](C)CCCC(C)C)CC[C@@H]12 [Vitamin D3, Cholecalciferol, reference compound]
Clarity [1, 4]: Clear
pH on clearing [1, 4]: 8.59
Turbidity at pH 7 (FNU) [1, 4]: 19.78 FNU

Compound: CC1=C(/C=C/C(C)=C/C=C/C(C)=C/C=C/C=C(C)/C=C/C=C(C)/C=C/C2=C(C)CCCC2(C)C)C(C)(C)CCC1 [β-Car, β-carotene]
Clarity ([2]; active agent 0.1%): Clear
Clarity at pH 7 ([2]; active agent 0.1%): Clear
pH on clearing ([2]; active agent 0.1%): 8.83
Clarity ([2]; active agent 0.25%): Clear
Clarity at pH 7 ([2]; active agent 0.25%): Clear
pH on clearing ([2]; active agent 0.25%): 8.83

Compound: Erythromycin Sulphate [Erythro., reference compound]
Clarity ([1]; S LPC 0.01%, active agent 0.1%): Clear
pH on clearing ([1]; S LPC 0.01%, active agent 0.1%): 8.86
Turbidity at pH 7 (FNU) ([1]; S LPC 0.01%, active agent 0.1%): 18.20 FNU

Compound: acetyl hexapeptide 3 [Argir]
Clarity at pH 7 ([2]; active agent 0.3%): Clear

The remaining lines, values ahead:

Clarity ([2]; active agent 0.5%): Clear
Clarity at pH 7 ([2]; active agent 0.5%): Clear
pH on clearing ([2]; active agent 0.5%): 8.86
Compound: CCCCCCCCCCCCCCCC(=O)N[C@@H](CCCCN)C(=O)N[C@H](C(=O)N[C@H](C(=O)N[C@@H](CCCCN)C(=O)N[C@@H](CO)C(=O)O)[C@@H](C)O)[C@@H](C)O [Mat, palmityl-KTTKS] (Palmitoyl-KTTKS-OH; C-terminus assumed)

Clarity ([1]; S LPC 0.01%, active agent 0.1%): Clear
pH on clearing ([1]; S LPC 0.01%, active agent 0.1%): 8.98
Turbidity at pH 7 (FNU) ([1]; S LPC 0.01%, active agent 0.1%): 27.7 FNU
Compound: CC(Cc1ccc(O)c(O)c1)C(C)Cc1ccc(O)c(O)c1 (stereo not drawn) [NDGA, Nordihydroguaiaretic acid]

Clarity [1, 4]: Clear
pH on clearing [1, 4]: 8.84
Turbidity at pH 7 (FNU) [1, 4]: 28.9 FNU
Compound: CC(C)[C@@H]1CC[C@@H](C)C[C@H]1OC(=O)C1CCC(=O)N1 (stereo partly drawn) [Questice]

Clarity [1, 5]: Clear
pH on clearing [1, 5]: 8.94
Turbidity at pH 7 (FNU) [1, 5]: 9.46 FNU
Compound: CC12CCC(C(=Cc3ccccc3)C1=O)C2(C)C (stereo not drawn) [Unisol S-22, 3-Benzylidene camphor]

Clarity ([2]; active agent 0.1%): Clear
Clarity at pH 7 ([2]; active agent 0.1%): Clear
pH on clearing ([2]; active agent 0.1%): 8.89
Compound: Ceramide IIIA

Clarity ([1]; S LPC 0.01%, active agent 0.1%): Clear
pH on clearing ([1]; S LPC 0.01%, active agent 0.1%): 8.98
Turbidity at pH 7 (FNU) ([1]; S LPC 0.01%, active agent 0.1%): 120.7 FNU
Compound: Ceramide IIIB [Cera. IIIB]
